{"source": "patent US20260138981A1", "about": "“DIHYDROFOLATE REDUCTASE INHIBITORS FOR ANTI-BIOTIC RESISTANT INFECTIONS” (THE TRUSTEES OF PRINCETON UNIVERSITY, priority 2022, published 2026)", "key": {"[1]": {"system": "P. aeruginosa PA01 and ATTC 27853, 5 ESKAPE pathogens", "assay": "Growth inhibition of bacterial panel (summary statement)", "details": "PA01, ATTC 27853 and all 5 ESKAPE pathogens tested", "quoted_text": "4-8 bacterial colonies of strains of interest were vortexed in saline and adjusted to an OD600 of 0.2. Strains were diluted 1:200 into CAMHB media into 96-well plates. Antibiotics were serially diluted 1:3 in DMSO, and 1 μL of each dilution was added to bacteria. The plates were incubated for 18-20 hours at 37° C. before observation."}, "P. aeruginosa PA14 [2]": {"system": "P. aeruginosa PA14", "assay": "Membrane permeability, TO-PRO-3 flow cytometry", "format": "cell-based", "details": "PA14, 2×MIC, 15 min", "protocol": "FIG. 5A provides flow cytometry results of PA14 stained with the membrane permeability dye TO-PRO-3. […]. The gates were determined for TO-PRO-3 staining using solvent only and polymixin B controls.\nThe ability of fluorofolin to permeabilize P. aeruginosa PA14 was examined. Specifically, flow cytometry of P. aeruginosa stained with TO-PRO-3 was used, treated the bacteria with 2×MIC, and analyzed membrane integrity. […] It was hypothesized that this decrease in membrane targeting might also decrease toxicity due to the disruption of eukaryotic membranes.\nOvernight P. aeruginosa PA14 or E. coli lptD4213 cultures were diluted 1:100 and grown to mid exponential phase at 37° C. Cultures were diluted 1:10 into PBS and treated with antibiotics for 15 minutes. P. aeruginosa PA14 was stained with TO-PRO-3 (640 nm excitation, 670/30 nm emission) to measure cell membrane integrity. […] DiOC2(3) was evaluated as a ratio of green (488 nm excitation, 525/50 nm emission) to red (488 nm excitation, 610/20 nm emission) (Novo et al., 1999). […] 100,000 events were recorded for each data file. Gates for permeabilization were determined using Polymixin B (Sigma-Aldrich P1004) and untreated controls. Gates for depolarization were determined using CCCP as a positive control. Data was analyzed using FlowJo v10 software (FlowJo LLC, Ashland, OR)."}, "S. epidermidis EGM-206": {"system": "S. epidermidis EGM-206", "assay": "MIC in LB Broth", "format": "cell-based", "details": "Staphylococcus epidermidis, EGM206, 16 hours at 37° C. in LB Broth, OD600", "protocol": "(§1) The minimum inhibitory concentration is defined as the lowest concentration of antibiotic at which no visible growth was detected after 16 hours at 37° C. Overnight cultures were diluted 1:150 in LB Broth and added to a 96-well plate. Antibiotics were serially diluted 1:2 and added to columns of the 96-well plate and grown at 37° C. with continuous shaking. Cell growth was measured by optical density (OD600). MIC assays were performed in either BioTek Synergy HT (Winooski, VT) or Tecan InfiniteM200 Pro (Männedorf, CH) microplate readers."}, "E. cloacae ATCC BAA-1143": {"system": "E. cloacae ATCC BAA-1143", "assay": "MIC in LB Broth", "format": "cell-based", "details": "Enterobacter cloacae, ATCCBAA1143, 16 hours at 37° C. in LB Broth, OD600", "protocol": "as §1"}, "E. coli MG1655": {"system": "E. coli MG1655", "assay": "MIC in LB Broth", "format": "cell-based", "details": "Escherichia coli, 16 hours at 37° C. in LB Broth, OD600", "protocol": "as §1"}, "P. aeruginosa PA14 [3]": {"system": "P. aeruginosa PA14", "assay": "MIC in LB Broth", "format": "cell-based", "details": "Pseudomonas aeruginosa", "protocol": "as §1"}, "S. aureus USA300": {"system": "S. aureus USA300", "assay": "MIC in LB Broth", "format": "cell-based", "details": "Staphylococcus aureus, 16 hours at 37° C. in LB Broth, OD600", "protocol": "as §1"}, "P. aeruginosa ATTC 27853": {"system": "P. aeruginosa ATTC 27853", "assay": "MIC in LB Broth", "format": "cell-based", "details": "Pseudomonas aeruginosa, ATTC27853, 16 hours at 37° C. in LB Broth, OD600", "protocol": "as §1"}, "E. coli NCM-3722": {"system": "E. coli NCM-3722", "assay": "MIC in LB Broth", "format": "cell-based", "details": "Escherichia coli, NCM3722, 16 hours at 37° C. in LB Broth, OD600", "protocol": "as §1"}, "E. coli lptD4213": {"system": "E. coli lptD4213", "assay": "MIC in LB Broth", "format": "cell-based", "details": "Escherichia coli, LPTD4213, 16 h", "protocol": "as §1"}, "A. baumannii BAA-125": {"system": "A. baumannii BAA-125", "assay": "MIC in LB Broth", "format": "cell-based", "details": "Acinetobacter baumannii, BAA125, 16 hours at 37° C. in LB Broth, OD600", "protocol": "as §1"}, "[4]": {"system": "K. pneumoniae ATCC 438165", "assay": "MIC in LB Broth", "format": "cell-based", "details": "Klebsiella pneumoniae, ATCC438165, 16 hours at 37° C. in LB Broth, OD600", "protocol": "as §1"}, "P. aeruginosa PA01": {"system": "P. aeruginosa PA01", "assay": "MIC in LB Broth", "format": "cell-based", "details": "Pseudomonas aeruginosa, 16 hours at 37° C. in LB Broth, OD600", "protocol": "as §1"}, "[5]": {"system": "CDC & FDA Antibiotic Resistant P. aeruginosa Isolate Bank", "assay": "CDC clinical isolate panel growth inhibition", "format": "cell-based", "details": "50 μg/mL", "protocol": "Strains with growth inhibition>80% were considered sensitive to fluorofolin treatment.\nClinical isolates^45 were inoculated into LB Broth a 96-well flat bottom plate and grown overnight to stationary phase at 37° C. […] Percent growth was calculated by dividing OD600 of fluorofolin antibiotic treated wells to vehicle only wells."}, "purified human DHFR": {"biological_target": "T1, purified human DHFR (Homo sapiens, UniProt P00374)", "T1 construct": "purchased R&D Systems 8456-DR", "T1 sequence (P00374 whole entry)": "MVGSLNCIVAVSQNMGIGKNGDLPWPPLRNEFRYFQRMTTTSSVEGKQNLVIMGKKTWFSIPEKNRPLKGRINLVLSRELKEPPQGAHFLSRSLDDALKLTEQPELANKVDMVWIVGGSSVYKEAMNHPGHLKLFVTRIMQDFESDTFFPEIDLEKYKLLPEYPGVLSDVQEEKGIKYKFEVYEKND", "assay": "Human DHFR in vitro assay", "format": "biochemical", "protocol": "FIG. 1E is an analogous assay to FIG. 2B using purified human DHFR.\nHuman purified DHFR was purchased from R&D Systems (8456-DR). DHFR activity was assayed by monitoring the decrease in absorbance by NADPH at […]. DHFR enzyme (0.5 μg/mL), dihydrofolic acid (100 μM), and different concentrations of methotrexate, fluorofolin, or DMSO control was dissolved in 200 μL of Tris buffer (pH 7.5, Tris salt concentration 25 mM). Reaction was initiated by adding NADPH in a 10× stock (1 mM for final concentration 100 μM), and absorbance at 340 nm was monitored over time by Cytation 5 reader (Agilent). Activity was normalized to the DMSO control."}}}
{"molecule": "Nc1nc(N)c2c(ccc3c2ccn3Cc2ccnc(F)c2)n1", "note": "[fluorofolin]", "values": [{"measurement": "concentration inhibiting growth", "setting": "[1]", "value": "less than 50 μg/mL"}, {"measurement": "disruption of membranes (TO-PRO-3)", "setting": "P. aeruginosa PA14 [2]", "value": "does not cause significant disruption"}, {"measurement": "MIC", "setting": "S. epidermidis EGM-206", "value": 0.312, "unit": "µg/mL"}, {"measurement": "MIC", "setting": "E. cloacae ATCC BAA-1143", "value": 12.5, "unit": "µg/mL"}, {"measurement": "MIC", "setting": "E. coli MG1655", "value": 0.625, "unit": "µg/mL"}, {"measurement": "MIC", "setting": "P. aeruginosa PA14 [3]; P. aeruginosa PA14, compound alone", "value": 3.1, "unit": "µg/mL"}, {"measurement": "MIC", "setting": "P. aeruginosa PA14 [3]; P. aeruginosa PA14, 16 hours at 37° C. in LB Broth, OD600", "value": 3.12, "unit": "µg/mL"}, {"measurement": "MIC", "setting": "S. aureus USA300", "value": 0.4, "unit": "µg/mL"}, {"measurement": "MIC", "setting": "P. aeruginosa ATTC 27853", "value": 25, "unit": "µg/mL"}, {"measurement": "MIC", "setting": "E. coli NCM-3722", "value": 0.312, "unit": "µg/mL"}, {"measurement": "MIC", "setting": "E. coli lptD4213", "value": 0.02, "unit": "µg/mL"}, {"measurement": "MIC", "setting": "A. baumannii BAA-125", "value": 31.2, "unit": "µg/mL"}, {"measurement": "MIC", "setting": "[4]", "value": 6.25, "unit": "µg/mL"}, {"measurement": "MIC", "setting": "P. aeruginosa PA01", "value": 6.25, "unit": "µg/mL"}, {"measurement": "sensitivity of isolates expressing KPC-5 and NDM-1 carbapenemase genes", "setting": "[5]", "value": "remained sensitive"}, {"measurement": "sensitivity of strains 7, 18 and 23 of the CDC panel (dfrB2)", "setting": "[5]", "value": "fluorofolin-sensitive"}, {"measurement": "clinical isolates resistant", "setting": "[5]; OD600 vs vehicle control", "value": 14.5, "unit": "%"}, {"measurement": "IC50", "setting": "purified human DHFR", "value": "14 ± 4", "unit": "nM"}]}
